Values of other authors in patent publication US5695952A, “Method for producing [Leu^13 ]motilin” (Kyowa Hakko Kogyo Co., Ltd., priority 1986, dated 1997).

Details: M. Fujino et al., Chem. Pharm. Bull., 26, 101 (1978)

motilin activity after oxidation of Met to the sulfoxide form: decreased motilin activity
SMILES: CC[C@H](C)[C@H](NC(=O)[C@@H]1CCCN1C(=O)[C@@H](NC(=O)[C@@H](N)Cc1ccccc1)C(C)C)C(=O)N[C@@H](Cc1ccccc1)C(=O)N[C@H](C(=O)N[C@@H](Cc1ccc(O)cc1)C(=O)NCC(=O)N[C@@H](CCC(=O)O)C(=O)N[C@@H](CC(C)C)C(=O)N[C@@H](CCC(N)=O)C(=O)N[C@@H](CCCNC(=N)N)C(=O)N[C@@H](CCSC)C(=O)N[C@@H](CCC(N)=O)C(=O)N[C@@H](CCC(=O)O)C(=O)N[C@@H](CCCCN)C(=O)N[C@@H](CCC(=O)O)C(=O)N[C@@H](CCCNC(=N)N)C(=O)N[C@@H](CC(N)=O)C(=O)N[C@@H](CCCCN)C(=O)NCC(=O)N[C@@H](CCC(N)=O)C(=O)O)[C@@H](C)O [motilin]
